What all share (assay): ≥ marks a high value that may be exact or a test limit, other limits are often not marked, values filed in µg/mL are converted to µM
The subject of assay [1] is Acinetobacter baumannii ATCC 19606.
Assay [2] has as its system Pseudomonas aeruginosa ATCC 27853.
Assay [3] deals with Candida albicans ATCC 10231.
Assay [4] relates to Enterobacter cloacae ATCC 49141.
In assay [5] the test system is Staphylococcus aureus II ATCC 6538P.
Assay [6] has as its system Escherichia coli D21.
Assay [7] relates to Enterococcus faecalis ATCC 19433.
In assay [8] the test system is Aspergillus fumigatus ATCC 26430.
Assay [9] has as its system Escherichia coli ATCC 25922.
Assay [10] deals with Bacillus subtilis ATCC 9372.
The subject of assay [11] is Staphylococcus aureus CCARM 3089.
Assay [12] deals with Bacillus subtilis KCTC 3068.
Assay [13] relates to Salmonella typhimurium KCTC 1926.
In assay [14] the test system is Staphylococcus aureus KCTC 1621.
For assay [15], the system named is Pseudomonas aeruginosa CCARM 2092.
Assay [16] deals with Burkholderia thailandensis.
For assay [17], the system named is Staphylococcus aureus CCARM 3001.
The subject of assay [18] is Bacillus anthracis Sterne 34F2.
For assay [19], the system named is Staphylococcus aureus CCARM 3543.
Assay [20] relates to Staphylococcus epidermidis KCTC 1917.
Assay [21] concerns Escherichia coli KCTC 1682.
In assay [22] the test system is Pseudomonas aeruginosa KCTC 1637.
The test system of assay [23] is Pseudomonas aeruginosa CCARM 2095.
Assay [24] deals with Pseudomonas aeruginosa CCARM 2109.
Assay [25] relates to Enterococcus faecium ATCC 51559.
The subject of assay [26] is Enterococcus faecalis ATCC 51299.
In assay [27] the test system is Staphylococcus aureus CCARM 3090.
The test system of assay [28] is Streptococcus mutans ATCC 25175.
The test system of assay [29] is Staphylococcus aureus CCARM 3095.
For assay [30], the system named is Actinomyces israelii ATCC 12102.
Assay [31] relates to Porphyromonas gingivalis ATCC 33277.
Assay [32] has as its system Fusobacterium nucleatum NCTC 11326.
For assay [33], the system named is Candida albicans ATCC 26790.
In assay [34] the test system is Acinetobacter baumannii.
Assay [35] concerns Streptococcus pyogenes NZ131.
The test system of assay [36] is Staphylococcus aureus mprF.
The test system of assay [37] is Escherichia coli O29.
Assay [38] relates to Candida albicans ATCC 14053.
For assay [39], the system named is Staphylococcus aureus ATCC 25923.
Assay [40] deals with Klebsiella pneumoniae ATCC 700603.
The test system of assay [41] is Klebsiella pneumoniae ATCC 13883.
Assay [42] deals with Pseudomonas aeruginosa ATCC 10145.
For assay [43], the system named is Streptococcus pneumoniae ATCC 700677.
In assay [44] the test system is Staphylococcus aureus ATCC 33591.
Assay [45] has as its system Escherichia coli CGSC 5167.
In assay [46] the test system is Enterococcus faecium ATCC 35667.
In assay [47] the test system is Streptococcus pneumoniae ATCC 33400.

Converted amounts (≈) assume the structure as drawn. “And” between values parts separate entries of the source, which are not always exact repeats. Equal entries are not always repeated.

As to `CC(C)C[C@H](NC(=O)[C@H](Cc1cnc[nH]1)NC(=O)[C@H](CCCCN)NC(=O)[C@H](CC(C)C)NC(=O)[C@H](CC(C)C)NC(=O)[C@H](Cc1cnc[nH]1)NC(=O)[C@H](CCCCN)NC(=O)[C@H](CC(C)C)NC(=O)[C@H](CC(C)C)NC(=O)[C@H](Cc1cnc[nH]1)NC(=O)[C@H](CCCCN)NC(=O)[C@H](CC(C)C)NC(=O)[C@H](C)NC(=O)[C@H](CC(=O)O)NC(=O)[C@@H](N)CC(=O)O)C(=O)O` [DDALKHLLKHLLKHL], the MIC is 50 µM (≈ 89.7 µg/mL) in assay [1]; 50 µM (≈ 89.7 µg/mL) in assay [2]; 12.5 µM (≈ 22.4 µg/mL) in [3]; at least 100 µM in assay [4]; 25 µM and 22 µM in assay [5]; at least 50 µM in [6]. Besides, the MIC in assay [7] was 25 µM (≈ 44.9 µg/mL); in assay [8] it was 12.5 µM and 25 µM; in assay [9] it was 100 µM (≈ 179 µg/mL).
Take `CC(C)[C@H](NC(=O)[C@H](CCCCN)NC(=O)[C@H](CCCN=C(N)N)NC(=O)[C@H](CCCCN)NC(=O)[C@H](CCCCN)NC(=O)[C@H](CCCCN)NC(=O)[C@@H]1CCCN1C(=O)[C@H](CCC(N)=O)NC(=O)[C@H](CO)NC(=O)[C@H](Cc1c[nH]c2ccccc12)NC(=O)[C@H](CCCCN)NC(=O)[C@@H](NC(=O)[C@H](Cc1c[nH]c2ccccc12)NC(=O)[C@H](Cc1c[nH]c2ccccc12)NC(=O)[C@@H](NC(=O)[C@H](CCCCN)NC(=O)[C@H](Cc1c[nH]c2ccccc12)NC(=O)[C@H](Cc1c[nH]c2ccccc12)NC(=O)[C@@H](NC(=O)[C@H](CCCCN)NC(=O)[C@@H](N)CCCCN)[C@@H](C)O)[C@@H](C)O)[C@@H](C)O)C(=O)O` [KKTWWKTWWTKWSQPKKKRKV]: the MIC in [10] worked out at 3.3 µM (≈ 9.39 µg/mL); in [11] it was 2 µM (≈ 5.69 µg/mL); in assay [12] it was 2 µM (≈ 5.69 µg/mL); in assay [13], 1.41 µM (≈ 4.02 µg/mL); in assay [14], 2 µM (≈ 5.69 µg/mL); in assay [15], 8 µM (≈ 22.8 µg/mL). In addition, the MIC was at least 100 µM in assay [16]; 2 µM (≈ 5.69 µg/mL) in [17]; at least 59 µM in assay [18]; 1 µM (≈ 2.85 µg/mL) in assay [19]; 1.41 µM (≈ 4.02 µg/mL) in [20]; 2 µM (≈ 5.69 µg/mL) in assay [21]. Besides, the MIC in assay [22] is 2.83 µM (≈ 8.05 µg/mL); in assay [23], 8 µM (≈ 22.8 µg/mL); in assay [24], 8 µM (≈ 22.8 µg/mL).
`CC[C@H](C)[C@H](NC(=O)[C@H](CC(C)C)NC(=O)[C@H](CCCCN)NC(=O)[C@@H](NC(=O)[C@@H](NC(=O)[C@H](CCCN=C(N)N)NC(=O)[C@@H](N)CCCCN)[C@@H](C)CC)C(C)C)C(=O)N[C@@H](CC(C)C)C(=O)N[C@@H](CCCCN)C(=O)N[C@@H](Cc1c[nH]c2ccccc12)C(=O)N[C@@H](CC(C)C)C(=O)N[C@@H](CCCN=C(N)N)C(N)=O` [KRIVKLILKWLR]: the MIC was 4 µM (≈ 6.26 µg/mL) in assay [11]; 4 µM (≈ 6.26 µg/mL) in assay [25]; 5.66 µM (≈ 8.85 µg/mL) in [12]; 2.83 µM (≈ 4.43 µg/mL) in assay [13]; at least 39.9 µM in [26]; 8 µM (≈ 12.5 µg/mL) in assay [27]. Also, the MIC in assay [28] was 2.5 µM (≈ 3.91 µg/mL); in assay [29] it was 4 µM (≈ 6.26 µg/mL); in [30], 2.5 µM (≈ 3.91 µg/mL); in [31], 2.5 µM (≈ 3.91 µg/mL); in assay [20], 2 µM (≈ 3.13 µg/mL); in assay [21] it was 8 µM (≈ 12.5 µg/mL). The MIC amounted to 8 µM (≈ 12.5 µg/mL) in assay [22]; 4.99 µM (≈ 7.81 µg/mL) in assay [32]; 9.97 µM (≈ 15.6 µg/mL) in [33]; 16 µM (≈ 25 µg/mL) in assay [23]; 8 µM (≈ 12.5 µg/mL) in [24].
As for `CC[C@H](C)[C@H](NC(=O)[C@H](CCCN=C(N)N)NC(=O)[C@H](CCC(N)=O)NC(=O)[C@@H](NC(=O)[C@@H](NC(=O)[C@H](CCCN=C(N)N)NC(=O)[C@@H](N)CCCCN)[C@@H](C)CC)C(C)C)C(=O)N[C@@H](CCCCN)C(=O)N[C@@H](CC(=O)O)C(=O)N[C@@H](Cc1ccccc1)C(=O)N[C@@H](CC(C)C)C(=O)N[C@@H](CCCN=C(N)N)C(=O)N[C@@H](CC(N)=O)C(=O)N[C@@H](CC(C)C)C(=O)N[C@H](C(=O)N1CCC[C@H]1C(=O)N[C@@H](CCCN=C(N)N)C(=O)N[C@H](C(=O)N[C@@H](CCC(=O)O)C(=O)N[C@@H](CO)C(=O)O)[C@@H](C)O)C(C)C` [KRIVQRIKDFLRNLVPRTES], the MIC was 25.9 µM (≈ 64 µg/mL) in [1]; 9.16 µM (≈ 22.6 µg/mL) in [34]; 4 µM (≈ 9.88 µg/mL) in [35]; 16 µM (≈ 39.5 µg/mL) in assay [36]; at least 64 µM in assay [37]; 10 µM (≈ 24.7 µg/mL) in assay [38]. The compound also displayed an MIC in assay [39] above 64 µM.
In the case of `CC[C@H](C)[C@H](NC(=O)[C@H](CCCN=C(N)N)NC(=O)[C@H](CCCN=C(N)N)NC(=O)[C@H](Cc1ccccc1)NC(=O)[C@H](CC(C)C)NC(=O)[C@H](CCCN=C(N)N)NC(=O)[C@@H](N)CCCN=C(N)N)C(=O)N[C@@H](CC(C)C)C(=O)N[C@@H](CCCN=C(N)N)C(=O)N[C@@H](Cc1ccc(O)cc1)C(=O)N[C@@H](CC(C)C)C(N)=O` [RRLFRRILRYL], the minimal inhibitory concentration (MIC) amounted to 1.5 µM (≈ 2.34 µg/mL) in [2]; 0.6 µM (≈ 0.937 µg/mL) in assay [40]; 2 µM (≈ 3.12 µg/mL) in assay [25]; 0.3 µM (≈ 0.468 µg/mL) in [41]; 2 µM (≈ 3.12 µg/mL) in assay [42]; 4 µM (≈ 6.24 µg/mL) in [43]. Also, the minimal inhibitory concentration (MIC) was 6 µM (≈ 9.37 µg/mL) in assay [39]; 3 µM (≈ 4.68 µg/mL) in assay [44]; 0.4 µM (≈ 0.624 µg/mL) in assay [45]; 4 µM (≈ 6.24 µg/mL) in assay [46]; 5 µM (≈ 7.8 µg/mL) in assay [47]; 0.9 µM (≈ 1.4 µg/mL) in assay [9].
